The subject of the test is OVCAR-5 complex spheroid (HUVEC/MSC), viability % T/C. The test is described as follows: Anticancer human tumor OVCAR-5 cell line growth inhibition [Asc].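 For all read-outs here: spheroids exposed to agents for 7 days before readout.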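 For viability, T/C: 100% = DMSO vehicle-treated wells.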 Particulars: for viability, T/C: stronger effect = lower value. In short, it runs like this: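 Tumor cells were grown as complex spheroids with human endothelial cells (HUVEC) and human mesenchymal stem cells as stroma. Agents were tested alone and in combination, in half-log steps down from the clinical Cmax, or from 10 microM where Cmax was unknown.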

Where [1] appears, read: curve of first compound, second compound 0.03 µM.
The mark [2] stands for this setting: curve of first compound, second compound 0.0949 µM.
Where [3] appears, read: curve of first compound, second compound 0.3 µM.
Where [4] appears, read: curve of first compound, second compound 0.949 µM.
[5] abbreviates: curve of first compound, second compound 3 µM.
[6] abbreviates: second compound 0.03 µM, first compound 0.0316 µM.
[7] abbreviates: second compound 0.03 µM, first compound 0.1 µM.
[8] abbreviates: second compound 0.03 µM, first compound 0.316 µM.
Setting [9] is: second compound 0.03 µM, first compound 1 µM.
[10] abbreviates: second compound 0.0949 µM, first compound 0.0316 µM.
The mark [11] stands for this setting: second compound 0.0949 µM, first compound 0.1 µM.
[12] abbreviates: second compound 0.0949 µM, first compound 0.316 µM.
Setting [13] is: second compound 0.0949 µM, first compound 1 µM.
The mark [14] stands for this setting: second compound 0.3 µM, first compound 0.0316 µM.
Where [15] appears, read: second compound 0.3 µM, first compound 0.1 µM.
Setting [16] is: second compound 0.3 µM, first compound 0.316 µM.
[17] abbreviates: second compound 0.3 µM, first compound 1 µM.
Where [18] appears, read: second compound 0.949 µM, first compound 0.0316 µM.
[19] abbreviates: second compound 0.949 µM, first compound 0.1 µM.
[20] abbreviates: second compound 0.949 µM, first compound 0.316 µM.
Where [21] appears, read: second compound 0.949 µM, first compound 1 µM.
Setting [22] is: second compound 3 µM, first compound 0.0316 µM.
Where [23] appears, read: second compound 3 µM, first compound 0.1 µM.
Setting [24] is: second compound 3 µM, first compound 0.316 µM.
Where [25] appears, read: second compound 3 µM, first compound 1 µM.

Values joined by “and” are separate entries in the source; they are usually repeats but may differ in a detail not shown here. Equal values may be shown once.

A word on the IC50: it is the concentration needed to halve the response being measured. What is called viability, T/C is the result in the treated group divided by that in the control group, in per cent. Turning to `C=C(F)C(=O)N1CCN(c2nc(OCC3CCCN3C)nc3c2CCN(c2cccc4cccc(Cl)c24)C3)CC1CC#N` (centres undefined) + CCN1C(C(=O)NC23CCC(C(=O)O)(CC2)CC3)C(c2cccc(Cl)c2F)C2(C(=O)Nc3cc(Cl)ccc32)C12CCCCC2, the 50% inhibitory concentration (IC50) turned out to be 1390 nM under setting [1]; 1260 nM under setting [2]; 1300 nM under setting [3]; 1280 nM under setting [4]; 1290 nM under setting [5]. The viability, T/C is 108% under setting [6]; 94.2% under setting [7]; 90.1% under setting [8]; 67.2% under setting [9]; 9.46% (second compound 0.03 µM, first compound 3.16 µM); 0.18% (second compound 0.03 µM, first compound 10 µM). Further, the viability, T/C is 102% under setting [10]; 104% under setting [11]; 87.7% under setting [12]; 62.4% under setting [13]; 9.56% (second compound 0.0949 µM, first compound 3.16 µM); 0.18% (second compound 0.0949 µM, first compound 10 µM). The viability, T/C was 101% under setting [14]; 122% under setting [15]; 101% under setting [16]; 62.7% under setting [17]; 7.84% (second compound 0.3 µM, first compound 3.16 µM); 0.2% (second compound 0.3 µM, first compound 10 µM). For the same compound, the viability, T/C was 109% under setting [18]; 110% under setting [19]; 105% under setting [20]; 60.4% under setting [21]; 11.3% (second compound 0.949 µM, first compound 3.16 µM); 0.18% (second compound 0.949 µM, first compound 10 µM). Besides, the viability, T/C is 115% under setting [22]; 112% under setting [23]; 104% under setting [24]; 61.8% under setting [25]; 10.2% (second compound 3 µM, first compound 3.16 µM); 1.38% (second compound 3 µM, first compound 10 µM).
Take `C=C(F)C(=O)N1CCN(c2nc(OCC3CCCN3C)nc3c2CCN(c2cccc4cccc(Cl)c24)C3)CC1CC#N` (centres undefined): the viability, T/C is, setting by setting: (compound 0.0316 µM) 102% and 108% and 105%; (compound 0.1 µM) 100% and 107% and 97.9%; (compound 0.316 µM) 83.5% and 91.4% and 89.7%; (compound 1 µM) 54.5% and 60.8% and 67.8%; (compound 3.16 µM) 10.6% and 8.67% and 19.2%; (compound 10 µM) 0.23% and 0.22% and 0.3%. For the setting “curve of compound”, the IC50 was 1050 nM and 1210 nM and 1490 nM.
As for `COc1c(OCCCN2CCOCC2)ccc2c3n(c(=NC(=O)c4cnc(N)nc4)nc12)CCN3` + CCN1C(C(=O)NC23CCC(C(=O)O)(CC2)CC3)C(c2cccc(Cl)c2F)C2(C(=O)Nc3cc(Cl)ccc32)C12CCCCC2, the IC50 by setting is: under setting [1], 36.4 nM; under setting [2], 29.5 nM; under setting [3], 44.4 nM; under setting [4], 38.1 nM; under setting [5], 34.1 nM. In addition, the viability, T/C (second compound 0.03 µM, first compound 0.00316 µM) was 82.4%; the viability, T/C (second compound 0.03 µM, first compound 0.01 µM) was 79.6%; the viability, T/C under setting [6] was 49.8%; the viability, T/C under setting [7] is 29.9%; the viability, T/C under setting [8] is 20%; the viability, T/C under setting [9] is 11.9%. The viability, T/C is, setting by setting: (second compound 0.0949 µM, first compound 0.00316 µM) 91.6%; (second compound 0.0949 µM, first compound 0.01 µM) 75.8%; under setting [10], 46.3%; under setting [11], 28.1%; under setting [12], 17.8%; under setting [13], 9.62%. In addition, the viability, T/C is, setting by setting: (second compound 0.3 µM, first compound 0.00316 µM) 87.8%; (second compound 0.3 µM, first compound 0.01 µM) 82.3%; under setting [14], 56.6%; under setting [15], 31.1%; under setting [16], 17.8%; under setting [17], 10.5%. For the same compound, the viability, T/C was 79.4% (second compound 0.949 µM, first compound 0.00316 µM); 75.1% (second compound 0.949 µM, first compound 0.01 µM); 54.8% under setting [18]; 24.8% under setting [19]; 17.3% under setting [20]; 8.43% under setting [21]. In addition, the viability, T/C is, setting by setting: (second compound 3 µM, first compound 0.00316 µM) 89.7%; (second compound 3 µM, first compound 0.01 µM) 83.9%; under setting [22], 51%; under setting [23], 22%; under setting [24], 15.2%; under setting [25], 8.71%.
Take `NC1CCC(NC2CC2c2ccccc2)CC1` (centres undefined): the viability, T/C reads like this: (compound 0.000316 µM) 97.1% and 101% and 95.9%; (compound 0.001 µM) 97.4% and 108% and 97%; (compound 0.00316 µM) 89.8% and 82% and 93.5%; (compound 0.01 µM) 90.4% and 90% and 91.2%; (compound 0.0316 µM) 105% and 93.5% and 87%; (compound 0.1 µM) 90.1% and 91.9% and 91.5%. For the same compound, for the setting “curve of compound”, the half-maximal inhibitory concentration (IC50) was more than 100 nM.
Turning to `COc1c(OCCCN2CCOCC2)ccc2c3n(c(=NC(=O)c4cnc(N)nc4)nc12)CCN3` + Cc1c(S(C)(=O)=O)c(-c2cc(F)cc(N3CCN(c4ccc(NS(=O)(=O)c5ccc(NC(CCN6CCC(C(=O)OCCCP(=O)(O)O)CC6)CSc6ccccc6)c(S(=O)(=O)C(F)(F)F)c5)cc4)CC3)c2)c(-c2ccc(Cl)cc2)n1C(C)C, the IC50 was 28 nM (curve of first compound, second compound 0.1 µM); 18.1 nM (curve of first compound, second compound 0.316 µM); 17.9 nM (curve of first compound, second compound 1 µM); 15.4 nM (curve of first compound, second compound 3.16 µM); 17.7 nM (curve of first compound, second compound 10 µM). For the same compound, the viability, T/C (second compound 0.1 µM, first compound 0.00316 µM) is 81.8%; the viability, T/C (second compound 0.1 µM, first compound 0.01 µM) is 73.3%; the viability, T/C (second compound 0.1 µM, first compound 0.0316 µM) was 46.5%; the viability, T/C (second compound 0.1 µM, first compound 0.1 µM) is 22%; the viability, T/C (second compound 0.1 µM, first compound 0.316 µM) is 14.2%; the viability, T/C (second compound 0.1 µM, first compound 1 µM) was 5.21%. Also, the viability, T/C is 74.7% (second compound 0.316 µM, first compound 0.00316 µM); 63.4% (second compound 0.316 µM, first compound 0.01 µM); 37% (second compound 0.316 µM, first compound 0.0316 µM); 20.3% (second compound 0.316 µM, first compound 0.1 µM); 9.08% (second compound 0.316 µM, first compound 0.316 µM); 2.87% (second compound 0.316 µM, first compound 1 µM). Also, the viability, T/C (second compound 1 µM, first compound 0.00316 µM) was 68.8%; the viability, T/C (second compound 1 µM, first compound 0.01 µM) is 65.4%; the viability, T/C (second compound 1 µM, first compound 0.0316 µM) was 35.3%; the viability, T/C (second compound 1 µM, first compound 0.1 µM) is 10.8%; the viability, T/C (second compound 1 µM, first compound 0.316 µM) was 5.94%; the viability, T/C (second compound 1 µM, first compound 1 µM) is 2.46%. Further, the viability, T/C is 64.5% (second compound 3.16 µM, first compound 0.00316 µM); 63.7% (second compound 3.16 µM, first compound 0.01 µM); 29.7% (second compound 3.16 µM, first compound 0.0316 µM); 10.2% (second compound 3.16 µM, first compound 0.1 µM); 3.29% (second compound 3.16 µM, first compound 0.316 µM); 1.07% (second compound 3.16 µM, first compound 1 µM). Besides, the viability, T/C runs as follows: (second compound 10 µM, first compound 0.00316 µM) 86.5%; (second compound 10 µM, first compound 0.01 µM) 68.7%; (second compound 10 µM, first compound 0.0316 µM) 31.2%; (second compound 10 µM, first compound 0.1 µM) 7.93%; (second compound 10 µM, first compound 0.316 µM) 2.43%; (second compound 10 µM, first compound 1 µM) 1.35%.

The values above are taken from PubChem BioAssay AID1963436 (Molecular Pharmacology Branch, DTP, NCI, 2024).
